This note sets out measurements from patent US10689335B2, “Hydrogen sulfide precursors and conjugates thereof” (Georgia State University Research Foundation, Inc., priority 2015, dated 2020).

Assay [1] concerns PLE. Kind of assay: Esterase-triggered release of H2S and parent drug from hybrid precursor (methylene blue method, HPLC). Type of assay: biochemical, pig. Particulars: 200 μM in phosphate buffer pH 7.4, PLE 20 unit/mL, 37° C. On the procedure:
To a 9.9 mL phosphate buffer (pH 7.4) solution was added 11.1 mg (200 unit) PLE, followed by the addition of 100 μL 20 mM HP-105 stock solution (final concentration: 200 μM). The resultant solution was sealed and stirred at 37° C. At every 30 min, 200 μL of reaction solution was taken into a 1.5 mL vial containing 200 μL zinc acetate (1%, w/v). Then the vial was centrifuged for 10 min. (14.5×1000 rp). The supernatant was removed and the precipitate was washed with PBS solution (100 μL×2). 600 μL of N,N-dimethyl-1,4-phenylenediaminesulfate (0.2% w/v in 20% H2SO4 solution) and 50 μL ferric chloride (10% w/v in 0.2% H2SO4 solution) was added to the vial. Then the vial was centrifuged for 5 min (14.5×1000 rp). The absorbance (at 740 nm) of the resulting solution was measured (after stirring for 10 min). H2S concentration was calculated based on a calibration curve of NaHS. (FIG. 7A).

In a further assay the test system is esterase. The experiment in a line: Esterase triggered lactone formation monitored by LC-MS/MS. The format is biochemical. On the procedure:
The release of hydrogen sulfide and its release rate were detected using LC-MS. A 200 μM HP 10 reaction mixture was treated with esterase for 25 min which led to formation of more than 180 μM of the lactone product as shown in FIG. 2.
HP-101 (final concentration: 200 μM) was added to PBS (10 mL) with 1 unit/mL esterase at 37° C. Reaction mixture (10 μL) was taken out every 3 minutes and added into a vial containing 990 μL methanol at −78° C. for 5 minutes. The mixture (14.5×1000 rp) was centrifuged, and the supernatant was used as the sample for LC-MS/MS analysis (Agilent 1100 LC, 6410 TripleQ MS/MS, Ion transition: 205.0/135.0, positive mode).

In the next assay the test system is porcine liver esterase. Kind of assay: Esterase-induced H2S release detected with fluorescent probe WSP-5. The format is biochemical. As to conditions: 200 μM, porcine liver esterase 4 u/mL in PBS at 37° C. On the procedure:
The ability of esterases to release hydrogen sulfide, as shown in Scheme 17, was examined using a well-known hydrogen sulfide fluorescent probe WSP-5 (3-oxo-3H-spiro[isobenzofuran-1,9′-xanthene]-3′,6′-diyl bis(2-(pyridin-2-yldisulfanyl)benzoate) to detect its production in the hydrogen sulfide precursor (HP) reaction mixture. A 200 μM solution of HP 10 was treated with porcine liver esterase (Aldrich, E2884), 4 u/mL) in PBS at 37° C., then 5 μL reaction mixture was taken into 995 μL acetonitrile and detected using WSP-5. The results are shown in FIG. 1 which indicate that HP 10 releases H2S in phosphate buffer saline with 4 units of esterase.
Because of the high volatility of H2S, when the escape rate is greater than formation rate, the concentration decreases. The peak concentration of H2S also appeared within about 25 min.
HP-101 (final concentration: 200 μM) or other control compounds were added to PBS (10 mL) buffer containing esterase (1 unit/mL) at 37° C. After 15 minutes, aliquots of 100 μL samples were taken out and added into 100 μL PBS containing 50 μM WSP-5 and 100 μM CTAB in 96-well plate. After mixing and standing for 5 min at room temperature, the fluorescent intensities at 535 nm were recorded by a plate reader with excitation at 485 nm. (FIG. 1). […]

For assay [2], the system named is TNF-α secretion in RAW 264.7 cells. The experiment in a line: Anti-inflammation study: TNF-α in LPS-stimulated RAW 264.7 cell culture supernatant (ELISA). Type of assay: cell-based. Particulars: 1 hour co-treatment with 1 unit/mL esterase and 1 μg/mL LPS. Here is the method: RAW 264.7 cells were seeded in the 48-well plate one day before the experiment. Lipopolysaccharide was added into the cell culture to initiate the inflammatory response in RAW 264.7 cells and to trigger the expression of cytokines. RAW 264.7 cells were co-treated with HPs (HP-101, HP-102, HP-103, HP-104) or iHPs, 1 unit/mL esterase and 1 μg/mL of LPS for 1 hour. Thereafter, the cell culture supernatant was collected. The concentrations of TNF-α in the cell culture supernatant was quantified by a commercial ELISA kit (ELISA Ready-SET-Go!®-eBioscience).

Assay [3] deals with esterases produced by the cells. The experiment in a line: H2S release from HP-101 in cell culture media (ISO-H2S-2 electrode). Particulars: 200 μM, 37° C. On the procedure:
The in vitro release of H2S from HP-101 was studied under various conditions such as HP-101 (200 μM) in DMEM media (5 mL), cell+DMEM media without FBS, and cell+DMEM media with FBS.
HP-101 (200 μM) was added to an incubation chamber (World Precision Instruments; WPI) containing cell culture media (10 mL) at 37° C. H2S formation was detected with the use of an ISO-H2S-2 probe attached to an Apollo 1100 Free Radical Analyser and shown as picoamps current generated. A standard curve (using Na2S.9H2O) was also generated under the same conditions.

Assay [4] relates to PLE. The experiment in a line: H2S concentration measurement by electrode probe ISO-H2S-2 in phosphate buffer with esterase. Type of assay: biochemical, pig. Particulars: 200 μM precursor in PBS at 37° C. with 1 unit/mL PLE. Here is the method:
HPs (compounds HP-101, HP-102, HP-103, HP-104; final concentration=200 μM) were added to an incubation chamber (World Precision Instruments; WPI) containing phosphate buffer (10 mM; pH 7.4, 10 mL), and esterase (1 unit/mL) at 37° C. H2S formation was detected with the use of a 2-mm H2S-selective microelectrode (ISO-H2S-2; WPI) attached to an Apollo 1100 Free Radical Analyser (WPI) and shown as picoamps current generated. A standard curve (using Na2S.9H2O) was generated by following literature procedures, but using PBS containing esterase at 37° C. (FIG. 4).
H2S release from these precursors was studied (FIG. 4). […] For 200 μM of the precursor compound in PBS at 37° C. with 1 unit/mL PLE, the peak H2S concentration for the fastest one, HP-101, was about 95 μM at 15 min; and for the slowest one, HP-104, it was about 13 μM at 43 min.

With `COc1ccc2cc([C@H](C)C(=O)Oc3cc(C)cc(C)c3C(C)(C)CC([O-])=S)ccc2c1.[Na+]` [HP-105, Sodium (S)-3-(2-((2-(6-methoxynaphthalen-2-yl)propanoyl)oxy)-4,6-dimethylphenyl)-3-methylbutanethioate], the “generation of naproxen and H2S by treatment with an esterase” value in the assay on PLE [1] is “could generate naproxen and H2S”.
`CC(=O)Oc1cc(C)cc(C)c1C(C)(C)CC(=O)S` [HP 10, 3-(2-acetoxy-4,6-dimethylphenyl)-3-methylbutanethioic S-acid]: the lactone product formed result in the assay with esterase (200 μM reaction mixture treated with esterase for 25 min) was “more than 180 μM”. Besides, in the assay on esterase (200 μM, esterase, 25 min, inferred from lactone formed), the H2S released result is listed as “more than 90%”. Also, the “H2S release detected using WSP-5” value with porcine liver esterase is listed as “releases H2S”.
Take `C1COCCN1.COc1ccc(P(=S)(S)N2CCOCC2)cc1` (stereo not shown) [GYY 4137]: the “effect on TNF-α secretion” value in assay [2] is recorded as “effectively inhibited TNF-α secretion”.
Regarding `CC(=O)Oc1cc(C)cc(C)c1C(C)(C)CC(=O)[S-].[Na+]` [HP-101, Sodium 3-(2-acetoxy-4,6-dimethylphenyl)-3-methylbutanethioate], the “H2S release in media collected after overnight of cell culture” value in assay [3] is on record as “released at a moderate rate”. Moreover, the “H2S release in DMEM alone” value in assay [3] (DMEM media without cells) is given as “did not release H2S”. In the assay on PLE [4], the “peak H2S concentration” value is reported as “about 95 μM” and the “time of peak H2S concentration” value was determined as 15 min.
As to `[Na+].[Na+].[S-2]` [Na2S], the “effect on TNF-α secretion” value in assay [2] is given as “pro-inflammatory effect”.
